Key:
σ1 receptor = biological target: T1, σ1 receptor (Cavia porcellus, UniProt Q60492); assay: Sigma-1 receptor competition binding assay with [3H]-(+)-pentazocine; design: species or system guinea pig; conditions: apparent Ki (Cheng-Prusoff), brain membranes
T1 construct: The membranes were prepared from guinea pig brain (minus cerebellum) as described above; from tissue; host or cells: guinea pig brain (minus cerebellum) membranes
Method: The in vitro σ1 receptor binding affinities of rhenium coordinated complexes were determined in a competition assay using […] and high-affinity σ1 ligand [3H]-(+)-pentazocine (28 Ci/mmol, NEN Life Science Inc., Cambridge, Mass.). See, Mol. Neuropharmacol. 1993, 3, 117-126.
The membranes were prepared from guinea pig brain (minus cerebellum) as described above and stored at −70 ° C. Twelve concentrations of the nonradioactive rhenium complexes ranging from 1×10^−11 to 1×10^−3 and protein samples (0.15 mg of membrane protein) were incubated with […] [3H]-(+)-pentazocine in a total volume of 0.25 mL of Tris-HCl (50 mM, pH 8.0). Incubations were carried out for 120 min at 25° C. All assays were terminated by dilution with 5 mL of ice-cold Tris-HCl (10 mM), pH 8.0, and solution were filtered through glass-fiber filters (Whatman GF/F; presoaked in 0.5% polyethyleneimine for 30 min at 25° C.). Filters were then washed three times with 5 mL of ice-cold Tris-HCl (50 mM, pH 8.0), and counted in Hionic-Fluor cocktail (Packard, Groningen, the Netherlands). The corresponding IC50 values were determined with Origin 6.0 software (OriginLab, Northampton, Mass.) and were used for the calculation of the apparent Ki values with the Cheng-Prusoff equation. See, Biochem. Pharmacol. 1973, 22, 3099-3108.

[1] = Determination of lipophilicity and pKa values by HPLC; type: physicochemical; conditions: for k' (pH = 7.4): HPLC capacity factor at pH 7.4; for k' (Max): HPLC capacity factor, maximum; for pKa (Corrected): HPLC method, corrected with standard amines
Method: The lipophilicity and pKa values of all complexes were determined using HPLC methods described previously (Stylli, C.; Theobald, A. E. Determination of Ionization Constants of Radiopharmaceuticals in Mixed Solvents by HPLC. Appl. Radiat. Isot., 1987, 38, 701-708; Johannsen, B.; Scheunemann, M.; Spies, H.; Brust, P.; Wober, J.; Syhre, R.; Pietzsch, H.-J. Technetium(V) and Rhenium(V) Complexes for 5-HT2A Serotonin Receptor Binding: Structure-Affinity Considerations. Nucl. Med. Biol., 1996, 23, 429-438; and Johannsen, B.; Berger, R.; Brust, P.; Pietzsch, H.-J.; Scheunemann, M.; Seifert, S.; Spies, H.; Syhre, R. Structural Modification of Receptor-Binding Technetium-99m Complexes in Order to Improve Brain Uptake. Eur. J. Nucl. Med. 1997, 24, 316-319). […] The mobile phase was acetonitrile:phosphate buffer (0.01 M), 3:1, v/v, with the aqueous buffer adjusted to the desired pH between 3 and 11. The capacity factor (k′) was calculated for each determination (Braumann, T.; Grimme, L. H. Determination of Hydrophobic Parameters for Pyridazinone Herbicides by Liquid-Liquid Partition and Reversed-Phase High-Performance Liquid Chromatography. J. Chromatogr. 1981, 206, 7-15; El Tayer, N.; van der Waterbeemd, H.; Testa, B. Lipophilicity Measurements of Protonated Basic Compounds by Reversed-Phase High-Performance Liquid Chromatography. II. Procedure for the Determination of a Lipophilic Index Measured by Reversed-Phase High Performance Liquid Chromatography. J. Chromatogr. 1985, 320, 305-312; and Minick, D. J.; Frenz, J. H.; Patrick, M. A.; Brent, D. A. A Comprehensive Method for Determining Hydrophobicity Constants by Reversed-Phase High-Performance Liquid Chromatography. J. Med. Chem., 1988, 31, 1923-1933) and the partition coefficient at a given pH (D or logD) were calculated from the equation: log D=a log k′+b where the parameters a and b are predetermined using standard amines. The fitted points of inflection from the sigmoidal DHPLC/pH profiles permit calculation of the pKHPLC(Stylli, C.; Theobald, A. E. Determination of Ionization Constants of Radiopharmaceuticals in Mixed Solvents by HPLC. Appl. Radiat. Isot., 1987, 38, 701-708). The aqueous ionization constants pKa were calculated from the pKHPLC values after correction with a predetermined correction factor obtained using standard amine compounds. Log P values of the neutral complexes were estimated from the respective upper plateau of the sigmoidal log D/pH curve in the alkaline range.

T1 sequence (Q60492 whole entry): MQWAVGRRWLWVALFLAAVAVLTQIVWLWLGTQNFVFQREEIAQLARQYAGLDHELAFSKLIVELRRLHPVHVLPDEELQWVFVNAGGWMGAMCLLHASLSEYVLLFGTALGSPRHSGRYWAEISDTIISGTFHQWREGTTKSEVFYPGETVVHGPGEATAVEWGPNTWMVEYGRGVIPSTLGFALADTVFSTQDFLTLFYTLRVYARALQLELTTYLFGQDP

| SMILES | Ki (σ1 receptor) | k' (pH = 7.4) [1] | k' (Max) [1] | pKa (Corrected) [1] |
| --- | --- | --- | --- | --- |
| O=C1CN(CCCN2CCC(Cc3ccccc3)CC2)CC[S][Re]2(=[O])[S]CC[N]12 (centres unmarked) [Re-15] | 547 nM | 60 | 160 | 8.34 |
| COc1ccccc1C1CCN(CCCN2CC[S][Re]3(=[O])[S]CC[N]3C(=O)C2)CC1 (centres unmarked) [Re-16] | 4830 nM | 57 | 117 | 8.09 |

Source: patent US20060159617A1, “Small technetium-99m and rhenium labeled agents and methods for imaging tissues, organs and tumors” (priority 2002, published 2006)
